Results published in US20200109126A1 (priority 2017, published 2020).
Read-outs that look alike come from different tables or passages of the source.

What was measured:
[1] = target: hKOR (Homo sapiens, UniProt P41145); assay: Receptor binding with [3H]diprenorphine at hKOR
[2] = target: humanDOR (Homo sapiens, UniProt P41143); assay: Receptor binding with [3H]diprenorphine at human DOR
[3] = target: hMOR (Homo sapiens, UniProt P35372); assay: Receptor binding with [3H]diprenorphine at hMOR
[4] = PZM analogs, (n) = number of independent experiments, read-out: binding affinity Ki hKOR
[5] = PZM analogs, (n) = number of independent experiments, read-out: binding affinity Ki hDOR
[6] = PZM analogs, (n) = number of independent experiments, read-out: binding affinity Ki hMOR
[7] = ± SD (two experiments) or SEM, (n) experiments, read-out: hKOR [3H]dyprenorphine Ki
[8] = ± SD (two experiments) or SEM, (n) experiments, read-out: humanDOR [3H]dyprenorphine Ki
[9] = ± SD (two experiments) or SEM, (n) experiments, read-out: hMOR [3H]dyprenorphine Ki

Chain of humanDOR (P41143 whole entry): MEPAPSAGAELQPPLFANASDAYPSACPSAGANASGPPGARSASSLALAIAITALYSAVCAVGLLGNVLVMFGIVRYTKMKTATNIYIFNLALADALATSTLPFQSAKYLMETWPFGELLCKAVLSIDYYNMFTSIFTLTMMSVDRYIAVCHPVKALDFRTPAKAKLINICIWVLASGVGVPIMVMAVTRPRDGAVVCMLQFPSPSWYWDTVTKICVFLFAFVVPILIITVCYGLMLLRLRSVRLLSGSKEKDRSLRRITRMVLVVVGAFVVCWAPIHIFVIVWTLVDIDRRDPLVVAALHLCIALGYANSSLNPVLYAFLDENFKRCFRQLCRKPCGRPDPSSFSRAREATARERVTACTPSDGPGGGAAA
Chain of hMOR (P35372 whole entry): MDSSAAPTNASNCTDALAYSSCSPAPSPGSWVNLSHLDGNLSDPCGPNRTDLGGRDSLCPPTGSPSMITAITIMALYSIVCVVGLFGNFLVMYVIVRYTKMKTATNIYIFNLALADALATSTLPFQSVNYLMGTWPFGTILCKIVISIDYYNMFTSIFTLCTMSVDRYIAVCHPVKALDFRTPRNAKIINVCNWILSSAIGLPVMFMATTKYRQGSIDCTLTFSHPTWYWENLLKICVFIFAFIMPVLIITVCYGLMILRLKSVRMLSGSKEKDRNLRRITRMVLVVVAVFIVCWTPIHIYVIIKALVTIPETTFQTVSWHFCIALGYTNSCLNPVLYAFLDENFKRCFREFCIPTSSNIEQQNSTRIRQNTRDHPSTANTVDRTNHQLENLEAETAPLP
Chain of hKOR (P41145 whole entry): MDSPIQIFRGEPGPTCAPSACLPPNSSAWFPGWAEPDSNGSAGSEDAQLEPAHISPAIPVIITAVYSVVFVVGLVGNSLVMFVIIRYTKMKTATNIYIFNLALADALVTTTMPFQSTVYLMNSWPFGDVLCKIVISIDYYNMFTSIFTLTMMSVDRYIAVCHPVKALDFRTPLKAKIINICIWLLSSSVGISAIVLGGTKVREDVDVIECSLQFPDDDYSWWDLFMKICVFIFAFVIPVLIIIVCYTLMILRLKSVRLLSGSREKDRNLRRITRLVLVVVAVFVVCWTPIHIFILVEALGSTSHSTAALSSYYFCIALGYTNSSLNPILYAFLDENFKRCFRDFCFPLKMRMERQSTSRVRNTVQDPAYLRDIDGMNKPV

Row | Structure (SMILES) | Ki [1, 4] [nM] | Ki [2, 5] [nM] | Ki [3, 6] [nM] | other results
1 | C[C@@H](Cc1ccsc1)NC(=O)NC[C@H](Cc1ccnc(O)c1)N(C)C | 1200 | 4100 | 210 | 
2 | CN(CCc1ccccc1)C(=O)N(C)C[C@H](Cc1ccc(O)cc1)N(C)C [drawing 505] | 220 | 4200 | 490 | 
3 | CN(C)[C@H](CNC(=O)NC(C)(C)Cc1ccccc1)Cc1ccccc1 | 930 | 3300 | 490 | 
4 | C[C@@H](Cc1ccsc1)NC(=O)NCC(Cc1ccc(O)cc1)N(C)Cc1ccccc1 (some centres unmarked) | 210 | 720 | 220 | 
5 | C[C@@H](Cc1ccsc1)NC(=O)NC[C@H](Cc1ccc(O)c(CO)c1)N(C)C [drawing 535] | 86 | 1500 | 66 | 
6 | C[C@H](NC(=O)NC[C@H](Cc1ccc(O)cc1)N(C)C)c1cccc2ccccc12 [drawing 524] | 74 | 540 | 85 | 
7 | CC(C)N(C[C@H](Cc1ccc(O)cc1)N(C)C)C(=O)N[C@@H](C)c1cccc2ccccc12 | 920 | 570 | 400 | 
8 | Cc1cc(O)cc(C)c1C[C@@H](CNC(=O)NCCc1ccsc1)N(C)C | 27 | 51 | 6.2 | 
9 | C[C@@H](Cc1ccsc1)NC(=O)NC[C@H](Cc1cccc(O)c1)N(C)C [drawing 531] | 46 | 350 | 34 | 
10 | CN(C)[C@H](CNC(=O)CCCc1ccccc1)Cc1ccc(O)cc1 | 100 | 370 | 72 | 
11 | C[C@H](Cc1ccsc1)NC(=O)NC[C@@H](Cc1ccccc1)N(C)C [drawing 489] | 5000 | 12000 |  | 
12 | COc1ccccc1CCNC(=O)NCC(Cc1ccc(O)cc1)N(C)C (centres unmarked) | 140 | 150 | 22 | 
13 | CN(C[C@H](Cc1ccc(O)cc1)N(C)C)C(=O)NCCc1ccccc1 [drawing 503] | 340 | 1700 | 610 | 
14 | CN(C)[C@H](CNC(=O)NC(C)(C)Cc1ccsc1)Cc1ccccc1 | 790 | 3000 | 210 | 
15 | CN(C)[C@H](CNC(=O)OCCc1ccsc1)Cc1ccc(O)cc1 | 190 | 570 | 170 | 
16 | CN(CCCl)C(CNC(=O)NCCc1ccccc1)Cc1ccc(O)cc1 (centres unmarked) |  |  |  | Ki ([2]; binding affinity Ki hDOR, PZM analogs, (n) = number of independent experiments): 360 nM

Row | Structure (SMILES) | Ki [1, 4] [nM] | Ki [2, 5] [nM] | Ki [3, 6] [nM] | other results
17 | CN(C)[C@H](CNC(=O)NC(C)(C)Cc1ccsc1)Cc1cccc(O)c1 [DD 46L, (S)-1-(2-(dimethylamino)-3-(3-hydroxyphenyl)propyl)-3-(2-methyl-1-(thiophen-3-yl)propan-2-yl)urea] |  |  |  | Ki [1, 7]: 32 nM; Ki [2, 8]: 190 nM; Ki [3, 9]: 25 nM
18 | CN(C)[C@@H](CNC(=O)NC(C)(C)Cc1ccsc1)Cc1ccc(O)cc1 | 1300 | 2900 | 310 | 
19 | C[C@H](NC(=O)NC[C@H](Cc1ccc(O)cc1)N(C)C)c1cccc2ccccc12 [DD 50LS, 1-((S)-2-(dimethylamino)-3-(4-hydroxyphenyl)propyl)-3-((S)-1-(naphthalen-1-yl)ethyl)urea] |  |  |  | Ki [1, 7]: 71 nM; Ki [2, 8]: 570 nM; Ki [3, 9]: 84 nM
20 | CN(C)[C@H](CNC(=O)NC1Cc2ccccc2C1)Cc1ccc(O)cc1 [drawing 526] | 51 | 56 | 7.7 | 
21 | CN(C)[C@H](CNC(=O)NCCc1cn(Cc2ccccc2)nn1)Cc1ccc(O)cc1 |  | 380 |  | Ki [1]: 1400 nM; Ki [3]: 200 nM
22 | CN(C)[C@H](CNC(=O)NC(C)(C)Cc1ccsc1)Cc1cccc(O)c1 [drawing 532] | 32 | 190 | 25 | 
23 | C[C@@H](Cc1ccsc1)NC(=O)NC[C@@H](Cc1ccc(O)cc1)N(C)C | 2300 | 4800 |  | 
24 | CC(Cc1ccsc1)NC(=O)NCC(Cc1ccccc1)N(C)C (single isomer, unassigned) [BD 127DS] |  |  |  | Ki [1, 7]: 3100 nM; Ki [2, 8]: 11000 nM
25 | Cc1cc(O)cc(C)c1C[C@@H](CNC(=O)N[C@H](C)Cc1ccsc1)N(C)C [drawing 537] | 12 | 17 | 4.1 | 
26 | C[C@H](Cc1ccccc1)NC(=O)NC[C@H](Cc1ccc(O)cc1)N(C)C [drawing 516] | 67 | 91 | 81 | 
27 | CN(C)[C@@H](CNC(=O)NC(C)(C)Cc1ccccc1)Cc1ccc(O)cc1 | 1500 | 3600 | 460 | 
28 | CN(C)[C@@H](CNC(=O)NCCc1ccsc1)Cc1ccc(O)cc1 | 5200 | 11000 | 1500 | 
29 | CN[C@H](CNC(=O)N[C@@H](C)Cc1ccsc1)Cc1ccc(O)cc1 | 240 | 700 |  | 
30 | C[C@@H](Cc1csc2ccccc12)NC(=O)NC[C@H](Cc1ccc(O)cc1)N(C)C [drawing 521] | 22 | 110 | 8.3 | 
31 | CC(Cc1ccsc1)NC(=O)NCC(Cc1ccccc1)N(C)C (single isomer, unassigned) [BD 127DR] |  |  |  | Ki [1, 7]: 5000 nM; Ki [2, 8]: 12000 nM
